“Also recorded” adds a separate entry of the source. Where two headings read alike, the source gives them in different places.
Key:
MAP2 = experiment: Immunohistochemical staining of MAP2 in cultured hippocampal slices; format: cell-based, rat; conditions: 100 nM OA 24 h, then 10 μM Memantine 24 h
Experimental: Organotypic cultures of rat hippocampal slices were prepared from 20-30 day old Wistar rats and cultured with the interface method as described previously (Stoppini, et al. 1991; Bahr, et al. 1995; Zhongrin, et al. 2000). The rats were anesthetized with ketamine (100 mg/kg body weight) and decapitated and the hippocampi were dissected out and sliced into 400 um coronal sections by a McIllwain tissue chopper. Select slices with uninterrupted bright transparent neuronal layers were plated, 1-3 slices/filter, onto Millicell CM filters (Millipore, Bedford, Mass.). For the first 2 days in vitro (DIV) cultures were maintained in 25% horse serum, 50% Basal Media-Eagle (BEM), 25% Eagle's Balanced Salt Solution (EBSS), 25 mM HEPES, 1 mM glutamine, 28 mM glucose, pH 7.2, at 32° C. in a 5% CO2 humidified atmosphere. The slice cultures were then switched to 25% horse serum, 50% BEM and EBSS modified so that the potassium concentration was 2.66 mM, for another 5 DIV. […]
After different treatments some of the hippocampal slices were fixed in periodate/lysine/paraformaldehyde solution (Mclean, et al. 1974) at 33° C. for 5 h and then kept in 1% Triton-x-100 in PBS (pH 7.4) for 72 h at room temperature to improve the penetration of the antibodies. […] Peroxidase was detected using 0.05% diaminobenzidine (DAB) and H2O2 (0.01%) for 10 min.

MAPK = MAPK activity in extracts of treated hippocampal slice cultures; format: cell-based, rat; conditions: after 0.3 mM glutamate; 10 μM Memantine or 15 μM MK801
Experimental: (§1) The rats were anesthetized with ketamine (100 mg/kg body weight) and decapitated and the hippocampi were dissected out and sliced into 400 um coronal sections by a McIllwain tissue chopper. Select slices with uninterrupted bright transparent neuronal layers were plated, 1-3 slices/filter, onto Millicell CM filters (Millipore, Bedford, Mass.). […] After 7 DIV, the cultures were maintained in physiological potassium containing 5% horse serum medium at 35° C. for at least 20 days before any treatment was applied. When the slices were treated, the reagents were applied into the culture medium. At different time points, the slices collected with a brush were washed twice in homogenizing buffer (50 mM HEPES, pH 7.0, 10 mM β-merceptoethanol [BME], 1 mM EDTA, 1 mM EGTA, 0.1 mM phenylmethyl sulfonyl fluoride [PMSF], 2.0 mM benzamidine and 2.0 μg/ml each of aprotinin, leupeptin and pepstatin) and homogenized at 4° C. using a Teflon-glass homogenizer. The homogenate was then divided into two parts, one was centrifuged at 16000×g for 15 min and the supernatant was used to assay activities of PP-2A and PP-1. The rest of the homogenate was diluted 1:1 with a phosphatase inhibitor cocktail (20 mM β-glycerophosphate, 2 mM Na3VO4 and 100 mM NaF, pH 7.0) and either used for Western blots or centrifuged at 16000×g for 15 min and the resulting supernatant used to determine the kinase activities.
Immobilized protein G (Pierce, Rockford, Ill.), 20 μl, was mixed in 50 mM Tris, pH 7.4, 150 mM NACl, 10 mM NaF, 1.0 mM Na3VO4, 2.0 mM EGTA, 1 mM PMSF, 5 μg/ml leupeptin, 5 μg/ml aprotinin, 2 μg/ml pepstatin, 25 μg/ml phosphoramidon. After incubation at 4° C. overnight, the mixture was centrifuged and the beads were washed three times. The beads were then resuspended in 50 mM Tris, pH 7.4, containing 10 mM MgCl2. MAPK substrate peptide (UBI, Lake Placid, N.Y.) was employed for the MAPK assay. […]

PP-1 [1] = experiment: PP-1 activity in extracts of treated hippocampal slice cultures; format: cell-based, rat; conditions: OA up to 1 μM, up to 48 h
Experimental: as §1

PP-2A [2] = biological target: PP-2A (Homo sapiens, UniProt P67775); parameters: treatment of the SY5Y human neuroblastoma in culture with 10 nM OA for 24 h; host or cells: SY5Y human neuroblastoma cells (endogenous); conditions: 10 nM OA, 24 h; cited from earlier work
PP-2A [3] = biological target: T1, PP-2A (Rattus norvegicus, UniProt P63331); conditions: up to 5 μM OA, 3 h; cited from earlier work
T1 construct: the supernatant was used to assay activities of PP-2A and PP-1; from tissue; host or cells: organotypic culture of adult rat hippocampal slices; 16,000xg extract

PP-1 [4] = conditions: up to 5 μM OA, 3 h; cited from earlier work
PP-1 [5] = conditions: 10 nM OA, 24 h; cited from earlier work

T1 sequence (P63331 whole entry): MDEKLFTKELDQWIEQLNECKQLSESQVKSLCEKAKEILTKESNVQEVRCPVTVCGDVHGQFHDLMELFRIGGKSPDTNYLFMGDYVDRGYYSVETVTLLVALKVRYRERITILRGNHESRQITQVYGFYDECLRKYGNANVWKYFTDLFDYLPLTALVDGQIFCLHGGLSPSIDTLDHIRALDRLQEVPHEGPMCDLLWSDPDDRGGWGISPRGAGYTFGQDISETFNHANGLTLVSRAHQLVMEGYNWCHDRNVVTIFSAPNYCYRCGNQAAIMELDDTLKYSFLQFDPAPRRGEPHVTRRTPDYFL
PP-2A (Homo sapiens, UniProt P67775), sequence (P67775 whole entry): as the sequence (P63331 whole entry) above, with L5V counted along it

Row | Structure (SMILES) | MAP2 immunostaining (MAP2) | effect on MAP kinase activity (MAPK) | inhibition of PP-1 activity (PP-1 [1]) | inhibition of PP-2A (PP-2A [2]) | maximal inhibition of PP-2A (PP-2A [3]) [%] | inhibition of PP-1 (PP-1 [4]) | inhibition of PP-1 (PP-1 [5]) [%]
1 | CC12CC3CC(C)(C1)CC(N)(C3)C2 [Memantine, 1-amino-3,5-dimethyl adamantane] | beaded accumulation of MAP2 in dendrites was reduced and overall staining was increased; also recorded: a decrease in the degeneration and restoration of the staining of the neuropil; also recorded: partially reversed | no effect | – | – | – | – | –
2 | C=C1[C@@H](O)[C@@H]2O[C@]3(CC[C@H](/C=C/[C@@H](C)[C@@H]4CC(C)=C[C@@]5(O[C@H](C[C@@](C)(O)C(=O)O)CC[C@H]5O)O4)O3)CC[C@H]2O[C@@H]1[C@@H](O)C[C@H](C)[C@H]1O[C@@]2(CCCCO2)CC[C@H]1C [OA, Okadaic Acid] | – | – | no significant changes; also recorded: no detectable inhibition | complete inhibition | ~70 | no detectable inhibition | ~65
